Source: patent US20220071996A1, “ORAL FORMULATIONS OF BRANAPLAM” (NOVARTIS AG, priority 2018, published 2022)

How the values were obtained:
[1] = test system: infants with Type I Spinal Muscular Atrophy; test: open-label first-in-human proof of concept study of oral branaplam; format: in vivo
Experimental: Clinical Trial: An Open-Label Multi-Part First-In-Human Proof of Concept Study of Oral Branaplam in Infants with Type I Spinal Muscular Atrophy. • Part 1: The aim of part one of this study was to determine the safety and tolerability of ascending weekly doses and to estimate the maximum tolerated dose (MTD) of oral/enteral branaplam in infants with Type 1 SMA. All patients had exactly 2 copies of the SMN2 gene. • In part one of the study, patients were dosed once weekly with branaplam. The branaplam doses were escalated in subsequent cohorts until MTD was determined or when PK results confirmed that the MTD could not be reached due to a potential pharmacokinetic exposure plateau at higher doses. A decision to dose escalate the next cohort was made after safety data had been collected for 14 days following the first dose. Patients completing 13 weeks of treatment were considered to have completed the study. The starting dose was 6 mg/m^2 (approximately 0.3125 mg/kg). Subsequent doses were 12 mg/m^2, 24 mg/m^2, 48 mg/m^2 and 60 mg/m^2 (approximately 0.625 mg/kg, 1.25 mg/kg, 2.5 mg/kg and 3.125 mg/kg, respectively). Each cohort had 2-3 patients. All doses are of branaplam in free form. 14 patients were enrolled in Part 1; 13 patients were exposed to branaplam. The duration of exposure ranged from 4-33 months, 7 patients remain in the study. Six of the 7 patients are receiving 60 mg/m^2, 1 patient is receiving 48 mg/m^2.
Preliminary Safety Results • AEs/SAEs: 455 AEs were reported in the 13 patients; the vast majority were attributed to the underlying disease. Seventy-nine SAEs occurred associated with 59 hospitalizations of which 39 of the 59 hospitalizations were for respiratory events or infections. • Deaths: A total of five patients have died, all from ventilatory failure due to their underlying disease.
Part 2 of the study will enroll patients into 2 cohorts: cohort 1 at a 0.625 mg/kg dose and cohort 2 at a 2.5 mg/kg dose. The selected dose levels of 0.625 mg/kg and 2.5 mg/kg are based on all safety data from Part 1, as well as, all data from chronic juvenile toxicity studies available at the time of initiation of Part 2. Six to 10 patients will be enrolled in cohorts 1 and 2. A total of a minimum of 12 and maximum of 20 patients will be enrolled and treated for 52 weeks. • Starting dose: The dose of 0.625 mg/kg (corresponding to 12 mg/m^2) is chosen as a starting dose in Part 2 based on safety and preliminary efficacy data collected in Part 1 of the study. Indeed, following an USM treatment with branaplam continued but at a reduced dose of 6 mg/m^2 (0.3125 mg/kg) for all patients who had completed the initial 13 weeks of treatment. This dose was predicted to be efficacious based upon the preliminary clinical (CHOP INTEND) response of patients in Cohort 1. […] For that reason and also given the preliminary efficacy data collected in patients treated with branaplam at 12 mg/m^2 (0.625 mg/kg) it was decided to take this dose as a starting dose in Part 2. • Second dose: The dose of 2.5 mg/kg (corresponding to 48 mg/m^2) is selected as the second dose in Part 2 being 4-fold higher than the starting dose of 0.625 mg/kg (corresponding to 12 mg/m^2). The difference between 0.625 mg/kg and 2.5 mg/kg is considered to be sufficient to ensure appropriate separation in terms of systemic branaplam exposure and potentially also of efficacy endpoints.

[2] = measured pKas of branaplam; format: physicochemical; details: acid
[3] = test system: juvenile dog; test: 52-week chronic juvenile dog study; format: in vivo

CC1(C)CC(Oc2ccc(-c3ccc(-c4cn[nH]c4)cc3O)nn2)CC(C)(C)N1 [branaplam, 5-(1H-pyrazol-4-yl)-2-(6-((2,2,6,6-tetramethylpiperidin-4-yl)oxy)pyridazin-3-yl)phenol]
decrease of CHOP INTEND scores ([1]; 13 weeks of treatment): no significant decrease was observed in any patient | Deaths (patients) ([1]; all from ventilatory failure due to underlying disease): five | AEs reported ([1]; human, in vivo): 455 | hospitalizations associated with SAEs ([1]; human, in vivo): 59 | hospitalizations for respiratory events or infections ([1]; human, in vivo): 39 | Clinical status ([1]; in vivo): do not follow the normal disease course for Type 1 SMA patients | SAEs ([1]; in vivo): Seventy-nine | patients who reached a CHOP INTEND score of >36 ([1]; in vivo): Eight | patients without feeding support after more than one year of treatment ([1]; in vivo): six | patients without feeding support after more than two years of treatment ([1]; in vivo): five | safety events following dose reduction ([1]; in vivo): decrease of motor skills, generalized motor weakness and increased respiratory muscle weakness | treated patients without feeding support at around 8 months of age ([1]; in vivo): Ten | dose limiting toxicity ([1]; in vivo, po): No dose limiting toxicity was observed | Death or permanent ventilation endpoint ([1]; natural history median age 13.5 months): majority of treated patients have not met this endpoint | HINE Section 2: patients who achieved independent sitting ([1]; of the 11 patients evaluated): one | patients with progressive and substantial increase of CHOP INTEND scores ([1]; po, 2184 h): 7 | patients without any ventilatory support with BiPAP ([1]; treated for more than two years): Four | pKa [2]: 11.5 | nerve findings [3]: findings of nerve degeneration
